In US9365563B2, “TRPV1 antagonists including dihydroxy substituent and uses thereof” (Purdue Pharma L.P., priority 2007, dated 2016):

Legend:
Aqueous solubility = type: physicochemical
[1] = Plasma concentration after administration to an animal; type: in vivo
human TRPV1 = human TRPV1 (Homo sapiens (Human), UniProt Q8NER1); test: Capsaicin-based assay, Protocol 2 (hCAP-CHO); type: cell-based; details: TRPV1/CHO cells, 100 nM capsaicin; mean ± SEM; read-out: TRPV1 IC50 Potency Human Capsaicin CHO (hCAP-CHO)
Chain of human TRPV1 (Q8NER1 whole entry, the tested form may be a part): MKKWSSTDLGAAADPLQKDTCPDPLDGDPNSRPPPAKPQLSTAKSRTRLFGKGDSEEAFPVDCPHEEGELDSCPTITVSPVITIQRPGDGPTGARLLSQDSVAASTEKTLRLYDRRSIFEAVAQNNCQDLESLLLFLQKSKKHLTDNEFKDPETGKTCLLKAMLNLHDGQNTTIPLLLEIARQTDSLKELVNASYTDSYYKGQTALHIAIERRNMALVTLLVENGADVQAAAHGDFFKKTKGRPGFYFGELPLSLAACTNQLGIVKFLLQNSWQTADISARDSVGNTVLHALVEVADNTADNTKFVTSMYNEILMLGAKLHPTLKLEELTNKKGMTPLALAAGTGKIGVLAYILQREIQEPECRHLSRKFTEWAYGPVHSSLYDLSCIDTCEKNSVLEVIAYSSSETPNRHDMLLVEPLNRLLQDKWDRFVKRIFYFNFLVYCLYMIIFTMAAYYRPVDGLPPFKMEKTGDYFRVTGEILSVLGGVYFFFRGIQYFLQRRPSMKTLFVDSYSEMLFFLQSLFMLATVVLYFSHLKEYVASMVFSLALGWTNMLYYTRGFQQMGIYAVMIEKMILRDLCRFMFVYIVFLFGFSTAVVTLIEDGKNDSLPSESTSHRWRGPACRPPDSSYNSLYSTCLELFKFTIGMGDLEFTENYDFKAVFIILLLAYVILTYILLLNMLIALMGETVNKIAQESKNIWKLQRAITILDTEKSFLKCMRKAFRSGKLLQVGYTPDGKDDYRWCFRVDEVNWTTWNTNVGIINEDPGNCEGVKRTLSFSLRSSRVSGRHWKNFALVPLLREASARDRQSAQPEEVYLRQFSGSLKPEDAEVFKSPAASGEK
Text: The TRPV1/CHO cell line was generated as described below. […] The resulting PCR products were purified from agarose gels using Gel Band Purification Kit (GE Healthcare Bioscience) and were subcloned into pCR-Blunt vector (Invitrogen). The cloned cDNA was fully sequenced using a fluorescent dye-terminator reagent (BigDye Terminator ver3.1 Cycle Sequencing Kit, Applied Biosystems) and ABI Prism 3100 genetic analyzer (Applied Biosystems). The pCR-Blunt vector containing the hTRPV1 cDNA was subjected to restriction digestion with EcoR1. The restriction fragment was subcloned into expression vector pcDNA3.1(-) (Invitrogen) and named pcDNA3.1(-)-hVR1 plasmid. The sequence of the cDNA encoding TRPV1 is available at GenBank accession number AJ277028. […] The cells were transfected with the pcDNA3.1(-)-hVR1 plasmid using FuGENE6 (Roche) according to the manufacturer's protocol. 24 hr after transfection, neomycin-resistant cells were selected using 1 mg/mL G418 (Nacalai Tesque). […] The cells expressing hTRPV1 were cultured in the growth medium supplemented with 1 mg/mL G418. […] Subsequently, the cells were loaded by incubation in 0.1 mL of wash buffer containing Fluo-4 at 3 μM final concentration. After 1 hour, the cells were washed twice with 0.2 mL wash buffer and resuspended in 0.1 mL wash buffer. The plates were then transferred to a Fluorescence Imaging Plate Reader (Molecular Devices). Fluorescence intensity was monitored for 15 seconds to establish a baseline. […] The final concentration of the compound was adjusted to range from 100 μM to 1.5625 μM. […] Data were collected over the entire time course and analyzed using Excel and the curve-fitting formula GraphPad Prism.

TRPV1 receptor = TRPV1 receptor (Rattus norvegicus (Rat), UniProt O35433); test: Capsaicin-induced eye wipe test; type: in vivo; details: for number of capsaicin-induced eye wipes: pre-administration value 24
Chain of TRPV1 receptor (O35433 whole entry): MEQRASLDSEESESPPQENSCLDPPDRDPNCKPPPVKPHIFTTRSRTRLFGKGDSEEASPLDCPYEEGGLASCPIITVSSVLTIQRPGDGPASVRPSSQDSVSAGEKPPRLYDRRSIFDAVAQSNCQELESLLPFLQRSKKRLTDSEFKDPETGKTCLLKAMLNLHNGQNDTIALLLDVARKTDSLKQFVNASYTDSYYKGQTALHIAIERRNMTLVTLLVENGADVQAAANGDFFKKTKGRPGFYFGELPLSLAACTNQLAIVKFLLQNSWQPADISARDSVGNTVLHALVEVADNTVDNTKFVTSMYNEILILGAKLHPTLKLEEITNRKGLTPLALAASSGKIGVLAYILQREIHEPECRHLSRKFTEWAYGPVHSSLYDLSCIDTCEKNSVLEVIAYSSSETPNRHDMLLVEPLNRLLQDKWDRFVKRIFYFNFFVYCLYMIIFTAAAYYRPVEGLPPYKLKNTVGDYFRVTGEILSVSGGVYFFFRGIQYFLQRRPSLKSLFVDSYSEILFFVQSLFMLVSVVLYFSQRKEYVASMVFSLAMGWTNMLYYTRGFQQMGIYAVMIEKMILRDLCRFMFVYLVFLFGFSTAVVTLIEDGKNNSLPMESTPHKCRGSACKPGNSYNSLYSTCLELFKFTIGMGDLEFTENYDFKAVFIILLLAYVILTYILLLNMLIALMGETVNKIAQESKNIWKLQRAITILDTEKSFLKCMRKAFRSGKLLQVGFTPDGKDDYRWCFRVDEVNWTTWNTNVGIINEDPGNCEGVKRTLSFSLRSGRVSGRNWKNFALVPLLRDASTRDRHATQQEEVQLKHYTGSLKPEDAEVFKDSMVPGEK
Procedure: Each experiment uses rats weighing between 200-260 g at the start of the experiment. The rats are group-housed and have free access to food and water at all times, except prior to oral administration of a compound of formula I when food is removed for 16 hours before dosing. A control group acts as a comparison to rats treated with a compound of formula I. The control group is administered the carrier for the compound of formula I. The volume of carrier administered to the control group is the same as the volume of carrier and compound of formula I administered to the test group.
To assess the effect of compounds of formula I on TRPV1 receptor-mediated pain, the capsaicin-induced eye wipe test is used (N. R. Gavva et al., “AMG 9810 [(E)-3-(4-t-Butylphenyl)-N-(2,3-dihydrobenzo[b][1,4]dioxin-6-yl)acrylamide], a Novel Vanilloid Receptor 1 (TRPV1) Antagonist with Antihyperalgesic Properties”, J. Pharmacol. Exp. Ther. 313:474-484 (2005)). The eye wipe test is a reliable high-throughput test of the effect of TRPV1 antagonists. Rats are given a single injection of 1, 3, 10 or 30 mg/kg of either a compound of formula I; 30 mg/kg of a control selected from Celebrex, indomethacin or naproxen; or carrier. At 1, 3 or 5 hours after drug administration, […] of a 100 μM capsaicin solution (in 10% EtOH/PBS) is instilled in one eye of each animal with a pipette. The number of forelimb movements (touching or wiping of the capsaicin-treated eye) are counted during a 2 minute period following instillation of capsaicin into the eye.

SMILES | aqueous solubility at pH 1.2 (Aqueous solubility) [μM] | aqueous solubility at pH 6.8 (Aqueous solubility) [μM] | also measured
O=C(Nc1ccc(C(F)(F)F)cc1)N1CC=C(c2ncccc2Cl)CC1 [Compound 200] | < 0.1 | < 0.1 | aqueous solubility at pH 6.8 (in words) (Aqueous solubility): insoluble; time to maximum plasma concentration after administration ([1]; animal plasma): 3.1 h
O=C(Nc1ccc(C(F)(F)F)cc1)N1CCC(F)(c2ncccc2Cl)CC1 [Compound 203] |  |  | aqueous solubility at pH 6.8 (in words) (Aqueous solubility): insoluble
O=C(Nc1ccc(C(F)(F)F)cc1)N1CCC(F)(c2ncccc2F)CC1 [Compound 207] |  |  | aqueous solubility at pH 6.8 (in words) (Aqueous solubility): insoluble
O=C(Nc1ccc(C(F)(F)F)cc1)N1CC=C(c2ncccc2F)CC1 [Compound 208] |  |  | aqueous solubility at pH 6.8 (in words) (Aqueous solubility): insoluble
O=C(Nc1ccc(C(F)(F)F)c(F)c1)N1CCC(F)(c2ncccc2Cl)CC1 [Compound 209] | 9.3 | 1.0 | 
O=C(Nc1ccc(S(=O)(=O)C(F)(F)F)cc1)N1CCC(F)(c2ncccc2Cl)CC1 [Compound 210] | 2.0 | 0.4 | 
O=C(Nc1ccc(OC(F)(F)F)cc1)N1CCC(F)(c2ncccc2Cl)CC1 [Compound 211] | 1.3 | 0.4 | 
O=C(Nc1ccc(C(F)(F)F)c(F)c1)N1CCC(F)(c2ncccc2F)CC1 [Compound 212] | 10.3 | 1.9 | 
O=C(Nc1ccc(C(F)(F)F)c(F)c1)N1CC=C(c2ncccc2Cl)CC1 [Compound 213] | 39.6 | 0.8 | 
O=C(Nc1ccc(OC(F)(F)F)cc1)N1CC=C(c2ncccc2Cl)CC1 [Compound 214] | > 50 | 1.8 | 
O=C(Nc1ccc(C(F)(F)F)c(Cl)c1)N1CC=C(c2ncccc2F)CC1 [Compound 215] | 9.6 | 0.6 | 
O=C(Nc1ccc(OC(F)(F)F)cc1)N1CCC(F)(c2ncc([C@H](O)CO)cc2Cl)CC1 [Compound C1] | > 50 | 15.7 | 
O=C1C=C(c2ncc([C@H](O)CO)cc2Cl)CCN1C(=O)Nc1ccc(C(F)(F)F)cn1 [Compound C6] |  |  | IC50 (human TRPV1): > 25 µM
O=C(Nc1ccc(OC(F)(F)F)c(-c2ccccc2)c1)N1CC=C(c2ncc(CO)cc2Cl)CC1 [Compound D3] |  |  | IC50 (human TRPV1): 0.565 ± 0.0586 µM
CC(C)(C)c1ccc(NC(=O)N2CC=C(c3ncc([C@@H](O)CO)cc3Cl)CC2)cc1 [Compound E1] |  |  | IC50 (human TRPV1): 0.0185 ± 0.0049 µM
O=C(Nc1ccc(OC(F)(F)F)cc1)N1CC=C(c2ncc([C@H](O)CO)cc2Cl)CC1 [Compound E2] | > 50 | > 50 | 
O=C(Nc1ccc(C(F)(F)F)c(F)c1)N1CCC(F)(c2ncc([C@H](O)CO)cc2Cl)CC1 [Compound F1] | > 50 | 22.6 | 
CCOC(=O)c1cnc(C2=CCN(C(=O)Nc3ccc(C(F)(F)F)cc3)CC2)c(Cl)c1 [Compound F2] | 1.0 | 3.0 | 
COC(=O)Cc1cnc(C2=CCN(C(=O)Nc3ccc(C(F)(F)F)cc3)CC2)c(Cl)c1 [Compound F6] | > 50 | 9.2 | 
CC(O)c1cnc(C2=CCN(C(=O)Nc3ccc(C(F)(F)F)cc3)CC2)c(Cl)c1 (centres unmarked) [Compound G2] | > 50 | 38.2 | 
O=C(O)Cc1cnc(C2=CCN(C(=O)Nc3ccc(C(F)(F)F)cc3)CC2)c(Cl)c1 [Compound G6] | > 50 | > 50 | 
O=C(Nc1ccc(S(=O)(=O)C(F)(F)F)cc1)N1CCC(F)(c2ncc([C@H](O)CO)cc2Cl)CC1 [Compound H1] | > 50 | > 50 | 
CN(C)Cc1cnc(C2=CCN(C(=O)Nc3ccc(C(F)(F)F)cc3)CC2)c(Cl)c1 [Compound H6] | > 50 | > 50 | 
CC(C)S(=O)(=O)c1ccc(NC(=O)N2CC=C(c3ncc(CO)cc3Cl)CC2)cc1 [Compound K3] |  |  | IC50 (human TRPV1): > 10 µM
O=C(O)c1cnc(C2=CCN(C(=O)Nc3ccc(C(F)(F)F)cc3)CC2)c(Cl)c1 [Compound M5] |  |  | IC50 (human TRPV1): > 25 µM
O=C(Nc1ccc(C(F)(F)F)cc1)N1CCC(F)(c2ncc([C@H](O)CO)cc2Cl)CC1 [Compound N1, (S)-4-(3-chloro-5-(1,2-dihydroxyethyl)pyridin-2-yl)-4-fluoro-N-(4-(trifluoromethyl)phenyl)piperidine-1-carboxamide] | > 50 | 28.0 | decrease of eye wipes relative to pre-administration value (TRPV1 receptor; 1 hour after administration): 87.5%; number of capsaicin-induced eye wipes (TRPV1 receptor; 1 hour after administration): 3; decrease of eye wipes relative to pre-administration value (TRPV1 receptor; 3 hours after administration): 96%; number of capsaicin-induced eye wipes (TRPV1 receptor; 3 hours after administration): 1; decrease of eye wipes relative to pre-administration value (TRPV1 receptor; 5 hours after administration): 92%; number of capsaicin-induced eye wipes (TRPV1 receptor; 5 hours after administration): 2
O=C(Nc1ccc(C(F)(F)F)c(Cl)c1)N1CCC(F)(c2ncc([C@@H](O)CO)cc2F)CC1 [Compound P5] |  |  | IC50 (human TRPV1): 0.0495 µM
O=C(Nc1ccc(C(F)(F)F)c(Cl)c1)N1CCC(F)(c2ncc([C@H](O)CO)cc2F)CC1 [Compound Q3] |  |  | IC50 (human TRPV1): 0.0143 ± 0.0013 µM

Second part, led by results:

aqueous solubility at pH 1.2 (Aqueous solubility) [μM] | aqueous solubility at pH 6.8 (Aqueous solubility) [μM] | SMILES | also measured
> 50 | > 50 | O=C(Nc1ccc(C(F)(F)F)cc1)N1CC=C(c2ncc(CO)cc2Cl)CC1 [Compound J2] | 
> 50 | > 50 | O=C(Nc1ccc(C(F)(F)F)cc1)N1CCC(F)(c2ncc([C@H](O)CO)cc2F)CC1 [Compound N6] | 
> 50 | > 50 | O=C(Nc1ccc(C(F)(F)F)c(F)c1)N1CC=C(c2ncc([C@H](O)CO)cc2Cl)CC1 [Compound S1, (S)-3-Chloro-5-(1,2-dihydroxy-ethyl)-3′,6′-dihydro-2′H-[2,4]bipyridinyl-1′-carboxylic acid (3-fluoro-4-trifluoromethyl-phenyl)amide] | 
> 50 | > 50 | O=C(Nc1ccc(C(F)(F)F)cc1)N1CC=C(c2ncc([C@H](O)CO)cc2F)CC1 [Compound U1] | 
> 50 | 26.4 | O=C(Nc1ccc(C(F)(F)F)c(Cl)c1)N1CC=C(c2ncc([C@H](O)CO)cc2F)CC1 [Compound U3] | 
> 50 | 17.4 | O=C(Nc1ccc(C(F)(F)F)c(F)c1)N1CCC(F)(c2ncc([C@H](O)CO)cc2F)CC1 [Compound Y3] | 
> 50 | > 50 | O=C(Nc1ccc(C(F)(F)F)cc1)N1CC=C(c2ncc([C@H](O)CO)cc2Cl)CC1 [Compound Z1, (S)-3-Chloro-5-(1,2-dihydroxy-ethyl)-3′,6′-dihydro-2′H-[2,4]bipyridinyl-1′-carboxylic acid (4-trifluoromethyl-phenyl)amide] | time to maximum plasma concentration after administration ([1]; animal plasma): 2.5 h; maximum plasma concentration relative to the maximum for compound 200 ([1]; animal plasma, for a given dose): 2.5 times; plasma concentration up to 24 h compared with compound 200 ([1]; up to 24 h): consistently greater
